The subject of this test is A. flavus ATCC 64025. Nature of the test: Checkerboard MIC assay, FICI. Format: cell-based, Aspergillus flavus. The following applies: combination with Compound 1. An excerpt:
The following assay was used to determine the minimum inhibitory concentration (MIC) and fractional inhibitory concentration index (FICI) for combinations of an antifungal agent and a glycopeptide antibacterial agent. This assay and methods for calculating FICI are well known in the art. See, for example, Eliopoulos, E. G. and R. Moellering, Jr. “Antimicrobial Combinations” in Antibiotics in Laboratory Medicine, edited by V. Lorian, 4th Ed., Williams & Wilkins, Baltimore, MD, pp. 330-396 (1996); […] et al., Antimicrobial Agents and Chemotherapy 47(4):1416-1418 (2003); or […] et al., Antimicrobial Agents and Chemotherapy 46(10):3323-3326 (2002). […] The MIC of the glycopeptide antibacterial agent determined from this experiment was used in FIC calculations. […]

Structures are written as SMILES.

In the case of `C[C@@H]1[C@H](O)[C@@H](C)/C=C/C=C/C=C/C=C/C=C/C=C/C=C/[C@H](O[C@@H]2O[C@H](C)[C@@H](O)[C@H](N)[C@@H]2O)C[C@@H]2O[C@](O)(C[C@@H](O)C[C@@H](O)[C@H](O)CC[C@@H](O)C[C@@H](O)CC(=O)O[C@H]1C)C[C@H](O)[C@H]2C(=O)O` [Amphotericin B], the FICI worked out at 0.51.

For `C[C@@H]1[C@H](O)[C@@H](C)/C=C/C=C/CC/C=C/C=C/C=C/C=C/C(O[C@H]2O[C@H](C)[C@@H](O)[C@H](N)[C@@H]2O)CC2O[C@](O)(CC(O)C(O)CCC(O)CC(O)CC(O)CC(=O)O[C@H]1C)CC(O)C2C(=O)O` (some centres unmarked) [Nystatin], the FICI is reported as 0.51.

Source of the values: US7521418B2, “Use of a polyene macrolide antifungal agent in combination with a glycopeptide antibacterial agent” (Theravance, Inc., priority 2003, dated 2009).
